We go through two compounds from patent EP0702683B1, “06-SUBSTITUTED GUANINE DERIVATIVES, A PROCESS FOR THEIR PREPARATION AND THEIR USE IN TREATING TUMOUR CELLS” (Cancer Research Technology Limited, priority 1993, dated 1994).

pIC50: −log10 of the molar value. Where two headings read alike, the source gives them in different places.

Series [1] addresses T1, ATase (Homo sapiens, UniProt P16455).
T1 sequence (P16455 1-207): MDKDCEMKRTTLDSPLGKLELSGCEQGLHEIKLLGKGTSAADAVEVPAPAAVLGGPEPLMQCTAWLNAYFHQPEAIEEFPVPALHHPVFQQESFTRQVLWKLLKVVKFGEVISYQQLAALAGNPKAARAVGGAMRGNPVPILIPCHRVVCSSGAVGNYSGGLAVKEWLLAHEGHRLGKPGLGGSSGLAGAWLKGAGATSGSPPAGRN
Put plainly: In vitro ATase inactivation assay with purified recombinant human ATase. Details: made in house. In kind it is biochemical. Particulars: for effectiveness in the in vitro ATase inactivation assay compared with BeG: Figure 1, in words. On the procedure: The cDNA cloning and overexpression of the human ATase has been reported previously^23. Purification of the recombinant proteins was achieved either by affinity chromatography through a DNA-cellulose column as described by Wilkinson et al.,^25, 26, or by DEAE-cellulose ion-exchange chromatography. For the latter, the ATase protein was partially purified by ammonium sulphate precipitation (30 - 60%) and dialysed against 10 mM Tris-HCl pH 7.5, 1 mM DTT, 2 mM EDTA, 10% glycerol, before loading on a DEAF-cellulose column. The ATase was then eluted with a 0-0.1 M NaCl gradient.
Compounds to be tested were dissolved in DMSO to a final concentration of 10 mM and diluted just before use in buffer I containing 1 mg/ml bovine serum albumin (IBSA). Recombinant ATase was diluted in IBSA and titrated in order that the reaction be conducted under ATase, and not substrate, limiting conditions. In each assay, fixed amounts of ATase (60-75 fmol) were incubated with varying amounts of 0^6-benzylguanine, or test compound in a total volume of 200 µl of IBSA containing 10 µg of calf thymus DNA at 37°C for 1 hour. The [^3H]-methylated-DNA substrate (100 µl containing 6.7 µg of DNA and 100 fmol of 0^6-methylguanine) was added and incubation continued at 37° for 1 hour, until the reaction was completed. Following acid hydrolysis of the DNA as previously described^21 the [^3H]-methylated protein was recovered and quantitated by liquid scintillation counting. Samples were typically assayed in duplicate and experiments repeated several times. I50 is the concentration of inactivator required to produce a 50% reduction in ATase activity.

Series [2] addresses T1, ATase. The series is described as follows: Inactivation of ATase activity in Raji cells. In kind it is cell-based. Also on record: endogenous in cells; host or cells: Raji. Here is the method: Mammalian cells were cultured under standard conditions. For example, Raji (a human lymphoblastoid cell line from a Burkitt's lymphoma) cells were grown in suspension culture in RPMI medium supplemented with 10% horse serum. A375M cells are human melanoma cells from which the xenografts described below were established following subcutaneous injection into nude mice: WiDr cells are a human colon carcinoma cell line: Hamster+120 cells are a mitozolomide-selected subline of a Chinese hamster lung fibroblast V79 cell line called RJKO: Yoshida cells are a rat carcinosarcoma cell line and YRbus is a busulphan resistant subline thereof: XP cells are an SV40-transformed fibroblast cell line originally from the skin of a Xeroderma pigmentosum patient, pHMGhAT2b cells are a clone of these cells that have been transfected with a mammalian cell expression vector containing the human ATase cDNA and pHMGla cells are a clone that have been transfected with the expression vector only (i.e. one not containing the human ATase cDNA). Cell pellets were resuspended in cold (4°C) buffer I containing 2 µg/ml leupeptin and sonicated for 10 seconds at 12 µ peak to peak distance. After cooling in ice, the cells were sonicated for a further 10 seconds at 18 µ. Immediately after sonication, 0.01 volumes of 8.7 mg/ml phenylmethanesulphonylfluoride in ethanol was added and the sonicates centrifuged at 15 000 g for 10 minutes at 4°C to pellet cell debris. The supernatant was kept for determination of ATase activity (see below).
Cells were diluted to 10^6/ml in culture medium containing either the appropriate concentration of inactivator or an equivalent volume of vehicle (DMSO). Following incubation at 37°C for 2 hours the cells were harvested by centrifugation, washed twice with PBS and the resulting cell pellets (between 1-2 x 10^7 per pellet) stored at -20°C.

A short description of series [3]: Stability of inactivators at 37°C (spectrophotometric half life). The class given is physicochemical. The method, boiled down: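 Inactivators diluted from 10mM DMSO stock to 0.1mM in degassed buffer I (1mM EDTA, 50mM Tris pH 8.3) or PBS (pH 7-7.2) at 37°C. UV scans at compound-specific wavelength every 3-10 minutes for up to 80 hours; T1/2 extrapolated from percentage absorbance change versus time.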

Series [4] can be described thus: Growth inhibition of V79 cells by inactivator alone. The class given is cell-based, Chinese hamster. To be noted: chinese hamster, v79 cells, Figure 5. Here is the method:
In order to assess the effects on cell growth alone, Xeroderma pigmentosum cells and Chinese Hamster V79 cells were exposed to increasing concentrations (up to 600µM) of selected inactivators for 2h at 37°. In some cases, the inactivators were allowed to undergo hydrolysis at 37°C for 20 hours and then added to […] in order to assess the extent to which the decomposition products of the agents might inhibit cell growth. After 6 days the extent of cell growth was determined as described above.

For series [5], the system named is Raji cells. The series is described as follows: Sensitization of Raji cells to BCNU (XTT assay). To be noted: for Raji sensitization (D90.^C/D90.^I) 1.0µM / Raji sensitization (D90.^C/D90.^I) O.1µM: BCNU, 2 hour pretreatment; for Raji sensitization (D90.^C/D90.^I) 1.0µM: inactivator 1.0µM; for Raji sensitization (D90.^C/D90.^I) O.1µM: inactivator O.1µM; for sensitizing Raji cells to the growth inhibitory effects of BCNU, compared with BeG: Figure 2, in words. The class given is cell-based, human. On the procedure:
Following a 2 hour incubation at 37°C, medium containing either increasing doses of BCNU, temozolomide or equivalent vehicle was added and the cells allowed to grow for 6 days. At this time XTT solution was added and the cells incubated for a further 4 hours at 37°C. The resulting red/orange formazan reaction product was quantified by measuring absorption at 450nm on a microtitre platereader.
On the technique in general: Tetrazolium dyes change colour on reduction, which living cells bring about.

Series [6] deals with ATase. Put plainly: Depletion of ATase activity in A375 tumour xenografts. In kind it is in vivo, nude mice. To be noted: 30 mg/kg, 2 or 24 hours after administration, Fig. 8, in words. Here is the method:
0X6 OPT, England (OLAC mice). […] For this reason lower doses were administered.
A375M (human melanoma) cells were grown in DMEM containing 10% fetal bovine serum. The cells were prepared for in vivo inoculation by incubation with 0.01% trypsin.
Cells (10^6) in 100µl of PBS were injected subcutaneously into the right-hand flank of 8-10 week old nu/nu athymic mice. These cells were allowed to develop into a tumour for 3-4 weeks for passaging into experimental animals. Tumour blocks measuring 2mm x 2mm x 2mm were implanted subcutaneously on the right hand flank. These animals were ready for use in inactivator experiments in 7-10 days.

The mark [7] stands for this setting: 0.1mM in PBS (pH 7-7.2), read-out: T1/2(h) in PBS (converted).
The mark [8] stands for this setting: 0.1mM in buffer I (1mM EDTA, 50mM Tris pH 8.3), read-out: T1/2(h) in Buffer I (converted).

On to `Nc1nc(OCc2ccco2)c2nc[nH]c2n1` [B.4203, O^6-furfurylguanine], for which the figures for the pIC50 in series [1] and in series [2] were 7.10 and 7.40, respectively. Further, in series [1], the “effectiveness in the in vitro ATase inactivation assay compared with BeG” value is given as “not as effective as BeG”. Also, the IC50 in series [2] (Human Raji cells, 2 hours at 37°C (Table 5); read-out: Inactivation of ATase in Mammalian Cells I50(µM) Human Raji) turned out to be 0.04 µM. Also, the half-life at 100 µM in series [3] (setting [7]) is 0.17 h; in series [3] (setting [8]), 0.3 h. Besides, in series [4] (read-out: growth inhibitory dose in V79 cells relative to the I50 dose), the selectivity ratio is ≥ 100. Besides, the MCC at 2 h in series [4] (inactivator alone, up to 600µM, 2h at 37°, read-out: doses producing some growth inhibition of V79 cells) was > 100 µM. In addition, the “Raji sensitization (D90.^C/D90.^I) 1.0µM” value in series [5] came to 5.7. Further, the “Raji sensitization (D90.^C/D90.^I) O.1µM” value in series [5] came to 2.6.
`Nc1nc(OCc2cccs2)c2nc[nH]c2n1` [B.4205, O^6-thenylguanine]: the values for the pIC50 in series [1] and in series [2] were 7.74 and 7.70, respectively. The “effectiveness in the in vitro ATase inactivation assay compared with BeG” value in series [1] was “considerably better”. For the same compound, the IC50 in series [2] (read-out: Inactivation of ATase in Mammalian Cells I50(µM) Human Raji; Human Raji cells, 2 hours at 37°C (Table 5)) amounted to 0.02 µM. Further, the half-life at 100 µM in series [3] (setting [7]) was 0.6 h; in series [3] (setting [8]), 1.2 h. Besides, the “sensitizing Raji cells to the growth inhibitory effects of BCNU, compared with BeG” value was “more effective than BeG” in series [5] (0.1uM inactivator) and “equally effective” in series [5] (1.0uM inactivator). In addition, the “Raji sensitization (D90.^C/D90.^I) 1.0µM” value in series [5] amounted to 8.0. Also, the “Raji sensitization (D90.^C/D90.^I) O.1µM” value in series [5] is reported as 8.4. The “inactivating ATase in human melanoma xenografts grown in nude mice, compared with BeG” value in series [6] is listed as “as effective as BeG”.

As a reminder, the pIC50 is the IC50 on a negative log10 scale, so that one unit is a factor of ten.
